Results as given in article PMC9230030, “Discovery of a Multifunctional Octapeptide from Lingzhi with Antioxidant and Tyrosinase Inhibitory Activity” (Pharmaceuticals, 2022).
Ends that are not written are not given here.

Assays:
[1] = Ferric reducing antioxidant power (FRAP) assay; details: octapeptide 1 mg/mL, 10 µL; 30 min room temperature in the dark, absorbance 593 nm; mean ± SD, n = 3
Experimental: Since the antioxidant activity of a substance should be determined by different assays to study the radical scavenging mechanisms, the in vitro radical scavenging potential of the synthesized octapeptide was determined by three different common methods: 2,2-diphenyl-1-picrylhydrazyl (DPPH), 2,2′-azino-bis(3-ethylbenzothiazoline-6-sulfonate) (ABTS), and ferric reducing antioxidant power (FRAP) assays. […] The scavenging activities were calculated to be 0.121 ± 0.01 AsEAC and 0.173 ± 0.03 GaEAC for the DPPH and the ABTS assay, respectively.
For the DPPH scavenging activity, 10 µL of the octapeptide (1 mg/mL) was mixed with 200 µL DPPH solution (0.2 mM in methanol). […] The DPPH scavenging activity of the samples was expressed as the ascorbic acid equivalent antioxidant capacity (AsEAC). For the ABTS scavenging activity, ABTS radical solution (7 mM ABTS stock solution with 2.45 mM potassium persulfate) was diluted in 5 mM phosphate buffer saline (Gibco, Waltham, MA, USA), pH 7.4, to acquire an absorbance of 0.50 at 734 nm before performing the assay. […] The absorbance of the mixture was evaluated at 734 nm. The ABTS scavenging activity of the samples was expressed as the gallic equivalent antioxidant capacity (GaEAC). […] The absorbance was measured at 593 nm. The FRAP scavenging activity of the samples was expressed as FeSO4 molar equivalents.

mushroom tyrosinase = experiment: In vitro tyrosinase inhibition assay (dopachrome, absorbance at 475 nm); type: biochemical; details: octapeptide 0.05 mg/mL
Experimental: To understand how the octapeptide modulates melanogenic enzymes, the activity of tyrosinase in the presence of the peptide was measured by the colorimetric assay. We used the time-dependent assay to confirm that the inhibition reaction occurred with dopachrome accumulation (absorbance at 475 nm). The time-dependent tyrosinase inhibition and the inhibition percentage of the octapeptide at a 50 ug/mL concentration are shown in Figure 2. The inhibitory effect of the octapeptide was determined against mushroom tyrosinase. The mixture of 10 µL of tyrosinase (20 enzyme unit/mL) in 50 mM phosphate buffer, pH 6.8, was added to 96-well plates containing 10 µL of the octapeptide (final concentration = 0.05 mg/mL), then 180 µL of 1 mM L-DOPA was added to start the reaction. […] Monitoring the inhibitory activity by measuring the absorbance at 475 nm for 60 min in a kinetic manner (reading every 1 min) using a microplate reader (Synergy H1, Biotek Inc., Winooski, VT, USA). The tyrosinase inhibitory activity was expressed as a percentage of inhibition at the end-point reaction (t = 60 min) by the equation. […] where Abssample is the absorbance of the reaction with the octapeptide and Absblank denotes the absorbance of the reaction without the testing sample (a buffer in each assay was added instead of the testing sample).

[2] = system: Ras-related protein Rab-7L1; Rab29; experiment: Targeted proteomics in melanoma cells: Rab29; type: cell-based, Mus musculus; details: melanoma cells treated with octapeptide 50 μg/mL, 48 h, vs control; LC-MS/MS proteomics
Experimental: (§1) Although using the tyrosinase enzyme extracted from a mushroom for an in vitro tyrosinase inhibitory assay has been widely studied as a routine screening for tyrosinase inhibition, tyrosinase from the mushroom is located in the cytoplasm and is different from the mammalian tyrosinase that is found on the membrane of melanocytes. Therefore, cell-based assays are also usually utilized to identify the potential tyrosinase inhibitor. In our study, the effects of the octapeptide at 50 μg/mL in melanoma cells was investigated by a proteomics approach. […]
(§2) The Mus musculus skin melanoma cell line (B16-F10 ATCC, CRL-6475) and Cercopithecus aethiops kidney normal cell line (Vero ATCC, CCL-81) were used to explore the cell cytotoxicity. The effect of the octapeptide on the skin was evaluated in skin carcinoma cells. […] The cell viability was analyzed using the MTT (3-(4,5-dimethylthiazol-2-yl)-2,5-diphenyltetrazolium bromide) assay. […] After incubation for 24 h, the cell viability was measured by the optical absorbance at 630 and 570 nm using a microplate reader and transformed into the percentage of cell survival. […]
(§3) The mzXML data were evaluated by the relative comparison of the peak intensities of each peptide ion in all datasets by DeCyder MS Differential Analysis software version 2.0 (GE Healthcare Co., Boston, MA, USA). […]

[3] = system: L-dopachrome tautomerase; Dct; experiment: Targeted proteomics in melanoma cells: Dct; type: cell-based, Mus musculus; details: melanoma cells treated with octapeptide 50 μg/mL, 48 h, vs control; LC-MS/MS proteomics
Experimental: as §1, §2, §3

[4] = system: 5,6-dihydroxyindole-2-carboxylic acid oxidase; Tyrp1; experiment: Targeted proteomics in melanoma cells: Tyrp1; type: cell-based, Mus musculus; details: melanoma cells treated with octapeptide 50 μg/mL, 48 h, vs control; LC-MS/MS proteomics
Experimental: as §1, §2, §3

Which results are given for “PVRSSNCA [octapeptide, Proline-Valine-Arginine-Serine-Serine-Asparaine-Cysteine-Alanine]”?
FRAP reductant ability, FeSO4 molar equivalents [1]: 2.21 ± 0.23 mM equivalent to FeSO4; tyrosinase inhibitory effect at end point (60 min) (mushroom tyrosinase; 1 mM L-DOPA, 50 mM phosphate buffer pH 6.8, 37 °C, t = 60 min, mean ± SD, n = 3): 13.48 ± 2.12%; tyrosinase inhibitory effect during the first 30 min of the reaction (mushroom tyrosinase; time-dependent assay, rate similar to control): not observed; Relative Expression (Fold) of Rab29 [2]: 2.0646 Fold; Relative Expression (Fold) of Dct [3]: 2.0460 Fold; Relative Expression (Fold) of Tyrp1 [4]: 0.5034 Fold
